Here are results for 19 compounds from US8685999B2, “Beta carboline sulphonylurea derivatives as EP4 receptor antagonists” (Merck Sharp & Dohme Corp., priority 2008, dated 2014).

In this test the target is T1, EP4 (Homo sapiens, UniProt P35408).
T1 construct: expressed in transfected cells; membranes prepared by differential centrifugation
Put plainly: Prostanoid receptor binding assay (radioligand displacement binding assay). On the procedure: Prostanoid receptor cDNAs corresponding to full length coding sequences are subcloned into the appropriate sites of mammalian expression vectors and transfected into HEK 293(ebna) cells. HEK 293(ebna) cells expressing the individual cDNAs are grown under selection and individual colonies are isolated after 2-3 weeks of growth using the cloning ring method and subsequently expanded into clonal cell lines.
Transfected HEK 293(ebna) cells are maintained in culture, harvested and membranes are prepared by differential centrifugation, following lysis of the cells in the presence of protease inhibitors, for use in receptor binding assays. Prostanoid receptor binding assays (for DP1, DP2 (CRTH2), EP1, EP2, EP3-III, EP4, FP, IP, and TP) are performed in 10 mM MES/KOH (pH 6.0) (EPs, FP and TP) or 10 mM HEPES/KOH (pH 7.4) (DPs and IP), containing 1 mM EDTA, 2.5-30 mM divalent cation and the appropriate radio-ligand. Synthetic compounds are added in DMSO which is kept constant at 1% (v/v) in all incubations. The reaction is initiated by addition of membrane protein. Non-specific binding is determined in the presence of 10 μM of the corresponding non-radioactive prostanoid. Incubations are conducted for 60-120 min at room temperature or 30° C. and terminated by rapid filtration. Specific binding is calculated by subtracting non specific binding from total binding. The residual specific binding at each ligand concentration is calculated and expressed as a function of ligand concentration in order to construct sigmoidal concentration-response curves. The binding affinity of the compounds is determined by calculating the equilibrium inhibition constant (Ki) from the equation Ki=InPt/1+[radio-ligand]/Kd where Kd is the equilibrium dissociation constant for the radio-ligand:receptor interaction and InPt is the inflection point of the dose-response curves.
Abramovitz, M. et al., Biochem, Biophys. Acta, 2000, 1483, pp. 285.
(Loss of bound radioactivity is the signal in a displacement assay; it reports binding, not function.)

The mark [1] stands for this setting: column marked X when IC50 between 1 and 5, read-out: IC50 (nm) 1 < X < 5.
The mark [2] stands for this setting: radioligand displacement binding assay, read-out: IC50.
Setting [3] is: column marked X when IC50 < 1, read-out: IC50 (nm) X < 1.
[4] abbreviates: column marked X when IC50 > 5, read-out: IC50 (nm) X > 5.

pIC50: −log10 of the molar value. Read-outs that look alike come from different tables or passages of the source.

T1 sequence (P35408 whole entry): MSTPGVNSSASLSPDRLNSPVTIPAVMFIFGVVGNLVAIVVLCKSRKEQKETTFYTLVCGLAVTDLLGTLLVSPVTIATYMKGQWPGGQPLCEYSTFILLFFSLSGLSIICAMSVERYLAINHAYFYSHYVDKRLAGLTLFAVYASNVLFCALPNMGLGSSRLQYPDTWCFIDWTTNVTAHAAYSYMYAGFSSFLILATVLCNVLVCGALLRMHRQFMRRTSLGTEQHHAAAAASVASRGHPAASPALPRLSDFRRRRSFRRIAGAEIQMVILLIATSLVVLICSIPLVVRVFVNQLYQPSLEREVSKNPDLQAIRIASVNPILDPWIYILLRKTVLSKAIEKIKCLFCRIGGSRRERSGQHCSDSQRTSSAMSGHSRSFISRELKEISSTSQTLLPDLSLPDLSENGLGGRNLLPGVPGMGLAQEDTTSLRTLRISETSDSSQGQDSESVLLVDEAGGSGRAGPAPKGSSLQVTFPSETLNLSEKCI

As usually defined, the pIC50 is the IC50 on a negative log10 scale, so that one unit is a factor of ten. For the compound `CN1CCc2c(n(-c3ccc(CC4(NC(=O)NS(=O)(=O)c5ccc(Cl)cc5)CC4)cc3)c3ccc(-c4ccccc4)cc23)C1=O` [Example 1-1, 4-chloro-N-[({1-[4-(2-methyl-1-oxo-6-phenyl-1,2,3,4-tetrahydro-9H-beta-carbolin-9-yl)benzyl]cyclopropyl}amino)carbonyl]benzenesulfonamide], the pIC50 was 8.30 to 9.00 under setting [1] and 8.30 to 9.00 under setting [2].
On to `Cc1ccc(S(=O)(=O)NC(=O)NCCc2ccc(-n3c4c(c5c(C)cc(C)cc53)CCN(C)C4=O)cc2)cc1` [Example 1-2, 4-methyl-N-[({2-[4-(2,5,7-trimethyl-1-oxo-1,2,3,4-tetrahydro-9H-beta-carbolin-9-yl)phenyl]ethyl}amino)carbonyl]benzenesulfonamide], for which the pIC50 under setting [3] was over 9.00.
Still for that read-out and setting: next, `CN1CCc2c(n(-c3ccc(CCNC(=O)NS(=O)(=O)c4ccc(Cl)cc4)cc3)c3cc(Cl)cc(Cl)c23)C1=O` [Example 1-3, 4-chloro-N-[({2-[4-(5,7-dichloro-2-methyl-1-oxo-1,2,3,4-tetrahydro-9H-beta-carbolin-9-yl)phenyl]ethyl}amino)carbonyl]benzenesulfonamide]: over 9.00.
On the same count and under the same terms, next, `CN1CCc2c(n(-c3ccc(CCNC(=O)NS(=O)(=O)c4ccc(Cl)cc4)cc3)c3ccc(Cl)cc23)C1=O` [Example 1-4, 4-chloro-N-[({2-[4-(6-chloro-2-methyl-1-oxo-1,2,3,4-tetrahydro-9H-beta-carbolin-9-yl)phenyl]ethyl}amino)carbonyl]benzenesulfonamide]: over 9.00.
`CN1CCc2c(n(-c3ccc(CCNC(=O)NS(=O)(=O)c4ccc(Cl)cc4)cc3)c3ccc(Br)cc23)C1=O` [Example 1-5, N-[({2-[4-(6-bromo-2-methyl-1-oxo-1,2,3,4-tetrahydro-9H-beta-carbolin-9-yl)phenyl]ethyl}amino)carbonyl]-4-chlorobenzenesulfonamide]: the pIC50 under setting [3] is over 9.00.
Take `CCN1CCc2c(n(-c3ccc(CCNC(=O)NS(=O)(=O)c4ccc(Cl)cc4)cc3)c3cc(Cl)cc(Cl)c23)C1=O` [Example 1-6, 4-chloro-N-[({2-[4-(5,7-dichloro-2-ethyl-1-oxo-1,2,3,4-tetrahydro-9H-beta-carbolin-9-yl)phenyl]ethyl}amino)carbonyl]benzenesulfonamide]: the pIC50 under setting [3] is over 9.00.
For the compound `O=C(NCCc1ccc(-n2c3c(c4c(Cl)cc(Cl)cc42)CCN(CC2CC2)C3=O)cc1)NS(=O)(=O)c1ccc(Cl)cc1` [Example 1-7, 4-chloro-N-{[(2-{4-[5,7-dichloro-2-(cyclopropylmethyl)-1-oxo-1,2,3,4-tetrahydro-9H-beta-carbolin-9-yl]phenyl}ethyl)amino]carbonyl}benzenesulfonamide], the pIC50 under setting [1] is 8.30 to 9.00 and the pIC50 under setting [2] is 8.30 to 9.00.
With `CN1CCc2c(n(-c3ccc(CCNC(=O)NS(=O)(=O)c4ccc(Cl)cc4)cc3)c3ccc(-c4ccccc4)cc23)C1=O` [Example 1-8, 4-chloro-N-[({2-[4-(2-methyl-1-oxo-6-phenyl-1,2,3,4-tetrahydro-9H-beta-carbolin-9-yl)phenyl]ethyl}amino)carbonyl]benzenesulfonamide], the pIC50 under setting [3] was over 9.00.
`O=C(NCCc1ccc(-n2c3c(c4c(Cl)cc(Cl)cc42)CCN(c2ccccc2)C3=O)cc1)NS(=O)(=O)c1ccc(Cl)cc1` [Example 1-9, 4-chloro-N-[({2-[4-(5,7-dichloro-1-oxo-2-phenyl-1,2,3,4-tetrahydro-9H-beta-carbolin-9-yl)phenyl]ethyl}amino)carbonyl]benzenesulfonamide]: the pIC50 under setting [4] is under 8.30 and the pIC50 under setting [2] was under 8.30.
As for `CN1CCc2c(n(-c3ccc(CCNC(=O)NS(=O)(=O)c4ccc(Cl)cc4)cc3)c3cc(Cl)c(Cl)cc23)C1=O` [Example 1-10, 4-chloro-N-[({2-[4-(6,7-dichloro-2-methyl-1-oxo-1,2,3,4-tetrahydro-9H-beta-carbolin-9-yl)phenyl]ethyl}amino)carbonyl]benzenesulfonamide], the pIC50 under setting [3] is over 9.00.
Consider `CN1CCc2c(n(-c3ccc(CCNC(=O)NS(=O)(=O)c4ccc(Cl)cc4)cc3)c3ccc(Cl)c(Cl)c23)C1=O` [Example 1-11, 4-chloro-N-[({2-[4-(5,6-dichloro-2-methyl-1-oxo-1,2,3,4-tetrahydro-9H-beta-carbolin-9-yl)phenyl]ethyl}amino)carbonyl]benzenesulfonamide], for which the pIC50 under setting [3] is over 9.00.
Consider `CN1CCc2c(n(-c3ccc(CCNC(=O)NS(=O)(=O)c4ccc(Cl)cc4)cc3)c3cc(Cl)ccc23)C1=O` [Example 1-12, 4-chloro-N-[({2-[4-(7-chloro-2-methyl-1-oxo-1,2,3,4-tetrahydro-9H-beta-carbolin-9-yl)phenyl]ethyl}amino)carbonyl]benzenesulfonamide], for which the pIC50 under setting [3] was over 9.00.
Still for that read-out and setting: the result for `CN1CCc2c(n(-c3ccc(CCNC(=O)NS(=O)(=O)c4ccc(Cl)cc4)cc3)c3cccc(Cl)c23)C1=O` [Example 1-13, 4-chloro-N-[({2-[4-(5-chloro-2-methyl-1-oxo-1,2,3,4-tetrahydro-9H-beta-carbolin-9-yl)phenyl]ethyl}amino)carbonyl]benzenesulfonamide] reads over 9.00; that for `CN1CCc2c(n(-c3ccc(CCNC(=O)NS(=O)(=O)c4ccc(Cl)cc4)cc3)c3cccc(Br)c23)C1=O` [Example 1-14, N-[({2-[4-(5-bromo-2-methyl-1-oxo-1,2,3,4-tetrahydro-9H-beta-carbolin-9-yl)phenyl]ethyl}amino)carbonyl]-4-chlorobenzenesulfonamide], over 9.00.
Turning to `CN1CCc2c(n(-c3ccc(CCNC(=O)NS(=O)(=O)c4ccc(Cl)cc4)cc3)c3cc(Br)ccc23)C1=O` [Example 1-15, N-[({2-[4-(7-bromo-2-methyl-1-oxo-1,2,3,4-tetrahydro-9H-beta-carbolin-9-yl)phenyl]ethyl}amino)carbonyl]-4-chlorobenzenesulfonamide], the pIC50 under setting [3] is over 9.00.
With `CN1CCc2c(n(-c3ccc(CC4(NC(=O)NS(=O)(=O)c5ccc(Cl)cc5)CC4)cc3)c3ccc(Br)cc23)C1=O` [Example 1-16, N-[({1-[4-(6-bromo-2-methyl-1-oxo-1,2,3,4-tetrahydro-9H-beta-carbolin-9-yl)benzyl]cyclopropyl}amino)carbonyl]-4-chlorobenzenesulfonamide], the pIC50 under setting [3] is over 9.00.
Take `CN1CCc2c(n(-c3ccc(CCNC(=O)NS(=O)(=O)c4ccc(Cl)cc4)cc3)c3cccc(-c4ccccc4)c23)C1=O` [Example 1-17, 4-chloro-N-[({2-[4-(2-methyl-1-oxo-5-phenyl-1,2,3,4-tetrahydro-9H-beta-carbolin-9-yl)phenyl]ethyl}amino)carbonyl]benzenesulfonamide]: the negative-log IC50 (pIC50) under setting [3] is over 9.00.
Take `CN1CCc2c(n(-c3ccc(CCNC(=O)NS(=O)(=O)c4ccc(Cl)cc4)cc3)c3cc(-c4ccccc4)ccc23)C1=O` [Example 1-18, 4-chloro-N-[({2-[4-(2-methyl-1-oxo-7-phenyl-1,2,3,4-tetrahydro-9H-beta-carbolin-9-yl)phenyl]ethyl}amino)carbonyl]benzenesulfonamide]: the pIC50 runs as follows: under setting [4], under 8.30; under setting [2], under 8.30.
As for `CN1CCc2c(n(-c3ccc(CCNC(=O)NS(=O)(=O)c4ccc(Cl)cc4)cc3)c3ccc(-c4ccc(F)cc4)cc23)C1=O` [Example 1-19, 4-chloro-N-{[(2-{4-[6-(4-fluorophenyl)-2-methyl-1-oxo-1,2,3,4-tetrahydro-9H-beta-carbolin-9-yl]phenyl}ethyl)amino]carbonyl}benzenesulfonamide], the pIC50 under setting [3] was over 9.00.
